Tests used:
[1] = system: G207 in U87 and MG co-culture; experiment: G207 replication in glioma-microglia co-cultures treated with C16; assay type: cell-based, HSV-1; conditions: 0.5 μM of C16
Method: (§1) FIG. 12B depicts an electrophoresis gel showing total proteins that were harvested from G2O7 infected microglia cells at 24 hours post treatment with either 1 μM of C16, 1 μM of Bay11, or 100 μM of AG. ICP27, ICP4, and […] expression was measured by western blot assay. U87 and MG co-culture were pretreated with 0.5 μM of C16 for 1 hour.
FIG. 12D is a bar graph showing G207 viral replication increasing by 33% in glioma-microglia co-cultures treated with C16.
U87 (5×104) alone or U87+microglia co-culture (5×104+5×104) or BV2 microglia cells (5×104) alone were seeded into a 24-well plate. After overnight incubation (to allow the cells to attach), cells were pretreated with indicated concentration of NFkB inhibitor, Bay-11 (Santa Cruz, Canada) or an indicated concentration of imidazolo-oxindole derivative C16 (Milipore, Canada) or vehicle for 1-2 hours. The cells were then infected with oHSV-1 (G207 or HrR3) virus at a MOI of 1 in presence of chemical inhibitors for another 2 days. The viruses were harvested and titrated in vero cells by plaque forming assay in 12-well plates by triplicates.
The effects of a PKR inhibitor (C16), a NFkappaB inhibitor (Bay11), and an iNOS inhibitor (aminoguanidine hydrochloride) were tested on G207 replication in BV2 cells (Example 15). […]

ICP4 = experiment: Western blot of ICP4 in HSV-1 infected microglia cells; assay type: cell-based; conditions: G207 infected; 1 μM C16, 1 μM Bay11 or 100 μM AG; 24 hours
Method: as §1
Total protein was harvested with sample buffer (125 mM Tris-HCL, 50% Glycerol, […] and 5% 2-mercaptoethanol) and boiled for 5 minutes. Protein samples were subjected to SDS-PAGE (8% gel), transferred to nitrocellulose membranes and blocked in 5% nonfat milk (Bio Rad) in TBS-Tween 20 (TBS-T) for 1 hour at room temperature. The membranes were then incubated with primary antibody against β-actin at 1:1000 (Cell Signaling, Danvers, Mass.) or anti-STAT1 antibody at 1:1000 (Cell Signaling, Danvers, Mass.) or anti-STAT3 antibody at 1:1000 (Cell Signaling, Danvers, Mass.) or anti-phospho STAT1 antibody (Tyr701) at 1:1000 (Cell Signaling, Danvers, Mass.) or anti-phospho STAT3 antibody (Tyr705) at 1:1500 (Cell Signaling, Danvers, Mass.) or anti-phosphor-eIF2a antibody (ser51) at 1:1000 (Cell Signaling, Danvers, Mass.) or anti-ICP27 antibody at 1:1000 (Abcam, Cambridge, Mass.) or anti-ICP4 antibody at 1:750 (Abcam, Cambridge, Mass.) for overnight at 4° C. […] Band density was measured by using ImageJ software (NIH, Bethesda, Md.). […]

LnCap cells = experiment: MTT cytotoxicity assay, LnCap cells; assay type: cell-based; conditions: Homo sapiens, 72 hours, read-out: Inhibitory concentration 50% (IC50)
Method: (§2) FIGS. 1A-1B are graphs that show an anti-tumor effect of nifuroxazide. (FIG. 1A) Cells were treated with indicated concentration of nifuroxazide for 72 hours. Cytotoxicity was measured by using MTT assay. (FIG. 1B) Subcutaneously U87 tumor bearing mice were peritoneally injected with indicated doses of nifuroxazide. Tumor size was measured using calipers at day 7 post nifuroxazide treatment.
(§3) In this example, the antitumor effect of nifuroxazide is evaluated in different tumor cells. Cells were treated with nifuroxazide for 72 hours (FIG. 1A). […] To verify the anti-tumor efficacy of nifuroxazide in vivo, animals with subcutaneous U87 tumor implants were injected in the peritoneum with vehicle, 1 mg/kg nifuroxazide and 50 mg/kg nifuroxazide. […] Tumor volume was reduced around 25% and 60% after 7 days treatment with 1 mg/kg nifuroxazide and 50 mg/kg nifuroxazide respectively (FIG. 1B).
(§4) Cells were seeded in a 96-well plate at a density of 1×104 (U87). After overnight incubation, cells were treated with only vehicle or indicated MOI of virus or indicated concentration of drugs or reagents. After 2 to 3 days of treatment cell viability was measured by MTT assay (Sigma, Canada) according to the manufacturer's instruction. […] After overnight incubation with lysis buffer, cell viability was measured at 595 nm using a plate reader (Envision 2103 Multilabel reader, Perkin Elmer).

MCF7 cells = experiment: MTT cytotoxicity assay, MCF7 cells; assay type: cell-based; conditions: Homo sapiens, 72 hours, read-out: Inhibitory concentration 50% (IC50)
Method: as §2, §3, §4

[2] = system: oHSV-1 (HrR3) in U87 tumors; experiment: oHSV-1 amplification in subcutaneous U87 tumors in vivo (viral DNA qPCR, immunohistochemistry); parameters: species or system mice
Source text: FIGS. 6A and 6B show results of in vivo dose dependent HrR3 replication augmentation by nifuroxazide. Subcutaneously U87 tumor bearing mice were intratumorally injected with single dose of HrR3 virus (n=2; […]) or peritoneally injected indicated concentration of nifuroxazide or both combination. Tumors were harvested at day 10 post treatment (FIG. 6A) Total genomic DNA was extracted from the harvested tumors. Viral DNA particles (ICP27) were detected by qPCR and normalized to β-actin. (FIG. 6B) ICP4 and STAT1 expression were determined by immunohistochemistry assay on harvested tumor tissues. Stained sections were then imaged using confocal microscopy.
In this example, oHSV-1 replication augmentation effect was evaluated in vivo. Subcutaneously implanted U87 tumors were treated with either HrR3 alone or in combination with 50 mg/kg nifuroxazide or 100 mg/kg nifuroxazide. Dose dependent oHSV-1 amplification was determined by measuring viral DNA by qPCR in tumor mass. oHSV-1 augmentation was observed 1.6 fold and 2.2 fold by 50 mg/kg nifuroxazide 100 mg/kg nifuroxazide respectively (FIG. 6A).

| Structure (SMILES) | G207 viral replication increased [1] | upregulated expression of ICP4 (ICP4) | IC50 (LnCap cells) | IC50 (MCF7 cells) | oHSV-1 augmentation (viral DNA by qPCR in tumor mass) ([2]; 50 mg/kg nifuroxazide with HrR3, day 10) | oHSV-1 augmentation (viral DNA by qPCR in tumor mass) ([2]; 100 mg/kg nifuroxazide with HrR3, day 10) | oHSV-1 amplification by immunohistochemistry assay ([2]; harvested tumor tissues) |
| --- | --- | --- | --- | --- | --- | --- | --- |
| O=C1Nc2ccc3ncsc3c2/C1=C/c1c[nH]cn1 [C16, 6,8-Dihydro-8-(1H-imidazol-5-ylmethylene)-7H-pyrrolo[2,3-g]benzothiazol-7-one] | 33% | 1.8 fold | – | – | – | – | – |
| O=C(N/N=C/c1ccc([N+](=O)[O-])o1)c1ccc(O)cc1 [nifuroxazide, Benzoic acid, 4-hydroxy-, [(5-nitro-2-furanyl)metylene]hydrazide] | – | – | ~5 µM | ~20 µM | 1.6 fold | 2.2 fold | oHSV-1 amplification was also confirmed |

Source: patent US20190307820A1, “COMPOSITIONS AND METHODS OF USING STAT1/3 INHIBITORS WITH ONCOLYTIC HERPES VIRUS” (priority 2016, published 2019)
